Laboratory results: US20230181721A1 (priority 2020, published 2023)

Legend:
[1] = system: HLA-A2.1 transgenic mice; details: mouse, in vivo
[2] = system: HLA-A2.1 transgenic mice; details: mouse, in vivo; remark: listed apart in the source
[3] = system: HLA-A2.1 transgenic mice; details: mouse, in vivo; remark: listed apart in the source
[4] = system: human PBMC; type: cell-based

| Substance | ELIspot (YES/NO) [1] | tetramer response [2] | Trm (response) [3] | Trm response [3] | Patient response [4] |
| --- | --- | --- | --- | --- | --- |
| ALSKGVHFV [3_wt] | Yes | medium | No | No | Yes |
| AVSKGVHFI [3_neoB] | Yes | medium | – | No | – |
| CLEASFNYV [5_neoA] | No | medium | Yes | Yes | Yes |
| FLAGLIAIV [6_neoA] | Yes | high | Yes | Yes | Yes |
| FLLNKEMYL [8_wt] | Yes | medium | No | No | Yes |
| FMAGLIAIV [6_neoB] | Yes | medium | – | No | – |
| FTAHIQWMV [7_neoB] | Yes | medium | – | No | – |
| GLMWLSYFV [14_neoA] | Yes | medium | No | No | Yes |
| GLSRIGMEV [15_neoA] | No | high | – | No | – |
| GTSRIGMEV [15_neoB] | No | high | – | No | – |
| KLADYNYKV [19_neoA] | Yes | low | – | – | Yes |
| KLKDCVMYA [20_wt] | No | medium | – | Yes | – |
| KLSYGIATE [22_neoB] | No | high | – | No | – |
| LALLLLDRL [23_wt] | Yes | medium | Yes | Yes | Yes |
| LLLDRLNQV [25_neoA] | Yes | medium | – | No | – |
| LLLPQGTTV [29_neoA] | No | medium | Yes | Yes | Yes |
| LLLTILTSV [26_neoA] | Yes | medium | Yes | Yes | Yes |
| LLSAGIFGV [27_neoA] | Yes | high | No | No | Yes |
| LLTGRLQSV [24_neoA] | Yes | high | – | No | – |
| LLWLIINLV [28_neoA] | Yes | high | No | No | Yes |
| LVSAGIFGV [27_neoB] | Yes | high | Yes | Yes | Yes |
| MLAKALRKV [30_wt] | Yes | high | No | No | Yes |
| MMISAGFSL [31_wt] | – | – | – | – | Yes |

| Substance | ELIspot (YES/NO) [1] | tetramer response [2] | Trm (response) [3] | Trm response [3] | Patient response [4] |
| --- | --- | --- | --- | --- | --- |
| NLIDSYFVV [32_wt] | Yes | medium | Yes | Yes | Yes |
| NLLKDCPAV [33_wt] | Yes | medium | – | No | – |
| NLNESLIDL [34_wt] | No | medium | – | No | – |
| QLEMELTPV [36_wt] | No | medium | Yes | Yes | Yes |
| RLMTWLDMV [37_neoA] | Yes | high | No | No | Yes |
| RLNEVAKNV [38_neoA] | No | high | – | No | – |
| RLNQLESKV [39_neoA] | No | medium | – | Yes | – |
| RTMTWLDMI [37_neoB] | Yes | high | No | No | Yes |
| SAPGVFCGV [41_neoB] | Yes | high | No | No | YES |
| SAWALIISV [42_neoB] | Yes | high | Yes | Yes | Yes |
| SLIAYTMSV [40_neoA] | Yes | medium | – | No | – |
| SMWALIISV [42_wt] | Yes | high | Yes | Yes | Yes |
| VLFLHVTYV [48_neoA] | Yes | high | No | No | Yes |
| VLMAPISAV [46_neoA] | Yes | medium | – | No | – |
| VLPTKLNDV [47_neoA] | No | medium | Yes | Yes | Yes |
| VSFLHVTYV [48_neoB] | Yes | high | Yes | Yes | Yes |
| VVFLHVTYV [48_wt] | Yes | high | No | No | Yes |
| WLMWLIINL [49_wt] | No | high | – | No | – |
| YLMADLVYT [55_neoB] | Yes | medium | – | No | – |
| YLNSTNVTV [51_neoA] | Yes | high | – | Yes | – |
| YLYALVYFV [54_neoA] | Yes | high | – | Yes | – |
| l_neoA (ALNTLVKQV) | Yes | high | Yes | Yes | Yes |
